Test results as given in patent publication US7232812B2, “Substituted azetidine compounds, their preparation and use as medicaments” (Laboratorios de Dr. Esteve S.A., priority 2004, dated 2007).

Experiments:
Type in all cases: in vivo
rats [1] = test: Test for activity against edema in rats (carrageenin paw); details: Rattus norvegicus, oral route
Procedure: IV. Test for Activity Against Edema in Rats
The test for activity against edema is carried out as described in the publication of Winter et al., Proc. Soc. Exp. Biol. Med. 111, 544–547, (1962). The respective part of the description is hereby incorporated by reference and forms part of the present disclosure.
At the beginning of each experimental session the rats are deprived of food, and kept in cages within groups of 5 animals, the cages being fitted with a grating on the floor to prevent coprophagy. After a period of 24 hours without food, the animals are marked in a suitable way, weighed and hydrated via oral administration of 30 ml/kg body weight of tap water. Half an hour after the hydratisation, the compounds to be tested are administered via oral route, in an amount of 10 ml/kg body weight as a suspension in gum arabic at 5% (weigh/volume). One hour after administration of the compounds the animals receive 0.1 ml of the inflammation causing agent (carrageenin 1% weight/volume, in sterile solution), injected via subplantar route into the right hind paw of the rats. Immediately after the carrageenin injection the volume of the injected paw is determined using a plethysmometer. The readings are expressed in ml. Readings of the volume of the paw are taken every hour after administration of the carrageenin for 7 hours.

rats [2] = test: Analgesia test in rats (carrageenan, thermal stimulus); details: Rattus norvegicus, oral route, 2 hours after administration, read-out: ED50 analgesic activity
Procedure: III: Analgesia Test in Rats
The inventive compounds are tested for analgesic activity as described above is carried out as described in the publication of K. Hargreaves et al., Pain, 32, 77–88, (1988). The respective part of the description is hereby incorporated by reference and forms part of the disclosure.
The rats are transferred to the experimentation laboratory, where they remain in groups of 5, in makrolon cages with a barred floor to avoid coprophagy. At the beginning of the experiment, water and food were removed, and animals were adequately weighed and marked.
Each rat receives via subplantar injection 0.1 ml of sterile saline solution into the left hind paw, followed by 0.1 ml of a 2% (weight/volume) carrageenan suspension in sterile saline solution into the right hind paw.
Two hours after the subplantar injections of carrageenan and vehicle, each rat receives by oral route the compounds to be tested, suspended in 5% (weight/volume) gum arabic, administered at 10 ml per kg of body weight.
Two hours after the administration of the compounds to be tested, the values for analgesic activity are determined. To this purpose, the rats are transferred to the methacrylate chambers of an analgesimeter provided with a glass floor. […]

PGE2 production [3] = test: PGE2 production in rat gastric mucosa; details: rats, oral route, read-out: PGE2 gastric mucose ED50
Procedure: (§1) VI: PGE2 Production in Rat Inflammatory Exudate and Gastric Mucosa
(§2) The PGE2 production in rat inflammatory exudate and gastric mucosa is carried out as described in the publication of O Tofanetti et al., “Effect of nimesulide on cyclo-oxygenase activity in rat gastric mucosa and inflammatory exudate”, Med Sci Res 17, 745–746 (1989). The respective part of the description is hereby incorporated by reference and forms part of the present disclosure.
(§3) For this text 6 male wistar rats (Interfauna-St Feliú de Codines, Barcelona) of approximately 200 g (each approximately 6 weeks of age) are used. The compounds to be tested are administered via oral route in gum Arabic at 5% (weight/volume) at a rate of 10 ml/kg.
(§4) One hour after administration of the compounds and under halothane anaesthesia, each rat is implanted subcutaneously in the interescapular area a 40×15×5 mm polyester sponge, soaked in a 0.5% suspension of carrageenan. […]
(§5) The rats's stomachs are removed and the gastric mucosa is detached from the underlying layers and by means of a 10 mm diameter die, mucosa samples from an area between the gastric corpus and pyloric antrum are taken. […] PGE2 concentrations from the inflammatory exudates and the gastric mucosa are determined by means of immunoassay reagents of Cayman Chemical kit, Ann Arbor, Mich., U.S.A. (Catalogue number: 514010) according to the manufacturer's instructions.

PGE2 production [4] = test: PGE2 production in rat inflammatory exudate; details: rats, oral route, carrageenan sponge exudate, read-out: PGE2 Inflam. exudade ED50
Procedure: as §1, §2, §3, §4, §5

| Compound | ED50 (rats [1]) [mg/kg] | ED50 (rats [2]) [mg/kg] | ED50 (PGE2 production [3]) [mg/kg] | ED50 (PGE2 production [4]) [mg/kg] |
| --- | --- | --- | --- | --- |
| CC(C)(C)c1cc(CN2CC(O)C2)cc(C(C)(C)C)c1O [Example 17, 1-(3,5-di-tert-butyl-4-hydroxy-benzyl)-azetidin-3-ol] | 62 |  |  |  |
| CC(C)(C)c1cc(C(=O)N2CC(O)C2)cc(C(C)(C)C)c1O [Example 1, (3,5-di-tert-butyl-4-hydroxy-phenyl)-(3-hydroxy-azetidin-1-yl)-methanone] | 3 | 0.4 | 0.16 | 0.28 |
| CC1(O)CN(C(=O)c2cc(C(C)(C)C)c(O)c(C(C)(C)C)c2)C1 [Example 3, (3,5-di-tert-butyl-4-hydroxy-phenyl)-(3-hydroxy-3-methyl-azetidin-1-yl)-methanone] | 58 | 0.14 | 7.3 | 0.5 |
